Data taken from patent US6982270B1, “3,4-dihydro-(1H)quinazolin-2-one compounds as CSBP/p38 kinase inhibitors” (SmithKline Beecham Corporation, priority 1999, dated 2006).

Molecular target: T1, CSBP/p38 (Homo sapiens, UniProt Q16539)
T1 construct: made in house; host or cells: yeast
Assay: CSBP/p38 Kinase Assay
Format: biochemical
Conditions: 32P transfer from ATP to EGFR-derived peptide T669; yeast-expressed, activated p38; 0.17 mM ATP; "this binding assay or a similar assay"; read-out: IC50 (positive inhibitory activity)
Method: This assay measures the CSBP/p38-catalyzed transfer of ^32p from [a−^32P]ATP to threonine residue in an epidermal growth factor receptor (EGFR)-derived peptide (T669) with the following sequence: […] (residues 661-681). (See Gallagher et al., “Regulation of Stress Induced Cytokine Production by Pyridinyl Imidazoles: Inhibition of CSBP Kinase”, BioOrganic & Medicinal Chemistry, 1997, 5, 49-64).
Reactions were carried in round bottom 96 well plate (from Coming) in a […] volume. Reactions contained (in final concentration): 25 mM Hepes, pH 7.5; 8 mM MgCl2; 0.17 mM ATP (the Km[ATP] of p38 (see Lee et al., Nature 300, n72 pg. 639-746 (December 1994)); 2.5 uCi of [g-32P]ATP; 0.2 mM sodium orthovanadate; 1 mM DTT; 0.1% BSA; 10% glycerol; 0.67 mM T669 peptide; and 24 nM of yeast-expressed, activated and purified p38. Reactions were initiated by the addition of [gamma-32P]Mg/ATP, and incubated for 25 min. at 37° C. Inhibitors (dissolved in DMSO) were incubated with the reaction mixture on ice for 30 minutes prior to adding the 32P-ATP. Final DMSO concentration was 0.16%. Reactions were terminated by adding 10 ul of 0.3 M phosphoric acid, and phosphorylated peptide was isolated from the reactions by capturing it on p81 phosphocellulose filters. Filters were washed with 75 mM phosphoric acids, and incorporated 32P was quantified using beta scintillation counter. […]

T1 sequence (Q16539 whole entry): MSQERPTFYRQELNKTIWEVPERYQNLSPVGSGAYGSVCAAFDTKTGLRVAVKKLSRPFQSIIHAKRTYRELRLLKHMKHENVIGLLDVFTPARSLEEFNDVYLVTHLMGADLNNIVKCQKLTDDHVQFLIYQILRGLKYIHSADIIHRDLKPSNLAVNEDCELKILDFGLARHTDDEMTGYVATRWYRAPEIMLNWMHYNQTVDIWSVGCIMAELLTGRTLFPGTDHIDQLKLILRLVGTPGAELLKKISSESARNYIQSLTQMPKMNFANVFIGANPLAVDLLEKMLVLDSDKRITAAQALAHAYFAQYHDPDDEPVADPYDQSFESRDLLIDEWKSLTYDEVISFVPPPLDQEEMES

O=C1NCc2cc(Nc3ccccc3)ccc2N1c1ccccc1 [Example 1, 1-Phenyl-2-oxo-3.4-dihydro-6-phenylaminoquinazoline]
IC50: < 50 µM
